In one series the test system is hepatic cells. Description: histopathological examination of isolated liver (H-E staining) in rats given carbon tetrachloride. Type of series: in vivo, male Wistar rats. Here is the method:
(§1) Carnosine zinc salt was suspended in 0.5% sodium carboxymethyl cellulose (CMC) solution to prepare 60 mg/ml and 20 mg/ml suspensions. This was given to rats orally every day for 8 days at the rate of 0.5 ml/100 g so that the dosage was to be 300 mg/kg and 100 mg/kg, respectively. To the control group, the same volume of 0.5% CMC was given.
(§2) To prepare the model animals with liver disorder caused by carbon tetrachloride, carbon tetrachloride mixed in olive oil to have a 10% (V/V) mixture was given orally at the rate of 4 ml/kg (0.4 ml/kg as carbon tetrachloride) one hour after the final administration of carnosine zinc salt or 0.5% CMC. The animals were anesthetized by intraperitoneal injection of pentobarbital at 24 hours after carbon tetrachloride was given, and blood was collected from carotid arteries. The blood was centrifuged at 3000 rpm for 15 minutes to fractionate serum, and GOT and GPT were determined (Reitman Frankel and Momose modification).
From the isolated liver, the paraffined sections were prepared, stained by H-E staining and were examined by histopathological examination.
For the experiment, male Wistar rats were used. […]

Series [1] concerns liver disorder caused by carbon tetrachloride. Nature of the series: prevention of experimental liver disorder in rat caused by carbon tetrachloride: serum GOT and GPT. As to conditions: for GOT (serum) / GPT (serum): CCl4 0.4 ml/kg oral 1 h after last dose, blood at 24 h; for GOT (serum): CCl4 + CMC control 2115.9 ± 260.2; for GPT (serum): CCl4 + CMC control 2243.8 ± 333.0. In kind it is in vivo, male Wistar rats. Here is the method: as §1, §2
For the experiment, male Wistar rats were used. With 10 rats in each group, they were divided into three groups: the group given with carbon tetrachloride (CCl4) and 0.5% CMC only (CCl4 +CMC), the group given with carbon tetrachloride and 300 mg/kg or 100 mg/kg of carnosine zinc salt (CCl4 +carnosine zinc salt) and the group given with 0.5% CMC only (CMC).

Series [2] deals with hepatitis experimentally induced by carbon tetrachloride. Description: carnosine zinc salt given after liver disorder had actually occurred (carbon tetrachloride hepatitis). In kind it is in vivo, model animals. As to conditions: CCl4 hepatitis.
The nature of series [3]: acute toxicity test, oral. In kind it is in vivo, female and male Wistar rats. The text has this:
In the acute toxicity test, female and male Wistar rats, each with body weight 150-200 g, were divided into the groups with 10 rats each, and 10 g/kg each of carnosine zinc salt was given orally.

Where [4] appears, read: 100 mg/kg oral daily for 8 days.
Setting [5] is: 300 mg/kg oral daily for 8 days.

“Also recorded” adds a separate entry of the source.

As to `NCCC(=O)[N-][C@@H](Cc1c[nH]cn1)C(=O)[O-].[Zn+2]` [carnosine zinc salt, L-carnosine zinc salt], the “necrosis of hepatic cells and fat formation” value in the series with hepatic cells (group given carnosine zinc salt, CCl4 rats) is “suppression of necrosis of hepatic cells and fat formation”. Moreover, the “degree of necrosis of hepatic cells” value with hepatic cells (improvement of liver disorder) is “reduction of the degree of necrosis of hepatic cells”. Also, in series [1] (setting [4]), the “GOT (serum)” value is 2167.7 ± 777.5 KU and the “GPT (serum)” value turned out to be 1917.7 ± 748.6 KU. The “GPT and GOT in blood, statistical significance” value in series [1] (300 mg/kg administration group, risk rate of 1%) was “significantly decreased at risk rate of 1%”. In addition, in series [1] (setting [5]), the “GOT (serum)” value turned out to be 629.7 ± 121.2 KU and the “GPT (serum)” value was determined as 427.7 ± 69.4 KU. For the same compound, the “increase of hepatic enzymes in blood” value in series [1] (given before liver disorder occurs, CCl4 hepatitis) was “effectively prevented”. The “increase of GPT and GOT in blood” value in series [1] (oral, depending upon the dosage, CCl4 rats) is “significant decline in the increase of GPT and GOT in blood; also recorded: suppresses increase of GPT and GOT in blood, depending upon the dosage”. The “prevention of experimental liver disorder caused by carbon tetrachloride” value in series [1] (oral, rat) is “effect of carnosine zinc salt to prevent the experimental liver disorder caused by carbon tetrachloride”. In series [2], the “preventive effect when given after liver disorder had occurred” value is “the same preventive effect was obtained”. For the same compound, the “death in acute toxicity test” value in series [3] (10 g/kg oral, observation for 7 days, female and male rats) is on record as “no case of death”. The acute toxicity result in series [3] (oral) was “very weak toxicity; also recorded: extremely weak”.

The record behind these values is patent publication US4927817A, “Preventive and therapeutic agent against liver disorder” (Zeria Pharmaceutical Co., Ltd., priority 1986, dated 1990).
